In US6656911B2, “Serine protease inhibitors” (Cortech, Inc., priority 1994, dated 2003):

What was measured:
[1] = biological target: T1, human neutrophil elastase (HNE) (Homo sapiens, UniProt P08246); assay: HNE Ki of CE compounds, tested as described in WO 96/16080; type: biochemical; conditions: read-out: HNE Ki
T1 sequence (P08246 30-267): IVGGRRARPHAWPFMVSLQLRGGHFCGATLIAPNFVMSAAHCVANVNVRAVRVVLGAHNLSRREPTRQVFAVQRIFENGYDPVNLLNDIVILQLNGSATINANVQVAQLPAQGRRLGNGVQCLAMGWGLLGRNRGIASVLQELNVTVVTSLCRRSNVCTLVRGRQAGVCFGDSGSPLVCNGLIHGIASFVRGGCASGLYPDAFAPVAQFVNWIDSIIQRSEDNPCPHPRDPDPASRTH

[2] = tested on: polymorphoneucleocyte (PMN); assay: Extracellular Matrix (ECM) degradation assay; type: cell-based; conditions: PMN's stimulated with opsonized zymosan, 4 hr at 37° C.
Method: Forty-eight well plates on which extracellular matrix had been established were supplied to Cortech by Dr. Simon's group at the State University of New York at Stony Brook. Briefly, the plates were prepared as follows: R22 rat heart smooth muscle cells were seeded into wells at 2.5×10^4 cells/cm. The cells were fed every 4 days with Eagle's Minimal Essential Media supplemented with fetal bovine serum, tryptose phosphate broth, cefotaxime and streptomycin. At confluence, daily supplements of 50 ug/ml ascorbic acid were added for 8 to 10 days during the synthesis of the ECM layer. [^35S]sulfate and [^3H]proline were also added to the culture media to incorporate radiolabel into the matrix. Cells were later lysed with 25 mM NH4OH. Plates were washed three times with water and once with phosphate-buffered saline containing 0.02% NaN3. Plates were stored at 4° C. until use.
Matrix degradation assays were performed as follows: 0.40 ml of Hanks balance salt solution (HBSS) containing 1 or 5 uM test inhibitor (final concentration; diluted from DMSO stock solution; <2% DMSO final concentration) was added to the wells. After 30 minutes, 50 ul of a polymorphoneucleocyte (PMN) suspension was added resulting in 5×10^5 cells/well. PMN's were stimulated with opsonized zymosan. Zymosan particles were washed and suspended in 0.5 ml human serum for 1 hr at 37° C., vortexing every 15 min. The particles were then washed three times with HBSS and added to wells at a ratio of 10 particles/PMN in a volume of 50 ul. After a 4 hr incubation at 37° C., a 100 ul aliquot of the supernatant was withdrawn for scintillation counting. Following removal of the remaining supernatant, the residual ECM was solubilized with 0.5 ml 2M NaOH. The amount of tritium in this solubilized ECM was accessed by scintillation. ECM degradation data are expressed as (soluble counts released/total ECM counts)—(basal counts released without PMN's/total ECM counts).

[3] = Blood level screening after oral dose; type: in vivo, Sprague-Dawley rats; conditions: rat, oral gavage 10 mg/kg; for concentration at 3 h: read-out: Plasma Levels (μM) 3 hr
Method: The inhibitors were dissolved or suspended in polyethylene glycol (PEG), PEG-400 or PEG:H2O:EtOH at a concentration of 10 mg/ml. Unfasted male Sprague-Dawley rats were given an oral dose of this solution by gavage. Rats received 10 mg inhibitor/kg body weight in a volume of 1 ml/kg. After 1,3 or 6 hr., the rats were killed with an overdose of urethane (2.5 g/kg; i.p.) and the blood collected in a heparinized tube via cardiac puncture. Red blood cells were separated from the plasma by centrifugation.
Depending on the inhibitor, one of four organics (ethyl acetate, toluene, isopropyl ether or methyl t-butyl ether) was used to extract the compound from the plasma. Inhibitor concentrations were measured by HPLC or LC/MS analysis.

Molecule	Ki [1]	Plasma Levels (μM) 1 hr ([3]; 1 hr)	Plasma Levels (μM) 3 hr [3]	Plasma Levels (μM) 6 hr ([3]; 6 hr)	inhibition at 1 µM ([2]; 1 uM inhibitor)	inhibition at 5 µM ([2]; 5 uM inhibitor)	further results
Cc1cccc(Cc2nnc(C(=O)[C@@H](NC(=O)CN3C(=O)N(Cc4ccccc4)C(=O)[C@H]3Cc3ccccc3)C(C)C)o2)c1 [CE2151, 1-Benzyl-4-(R)-benzyl-2,5-imidazolidinedione-N-[1-(2-[5-(3-methylbenzyl)-1,3,4-oxadiazolyl]carbonyl)-2-(S)-methylpropyl]acetamide]	59 nM				14.2%	-8.3%	
COC(=O)N[C@H](C(=O)N1CCC[C@H]1C(=O)N[C@H](C(=O)c1noc(Cc2cccc(C(F)(F)F)c2)n1)C(C)C)C(C)C [CE2214, Methyloxycarbonyl-L-valyl-N-[1-(3-[5-(3 trifluoromethylbenzyl)-1,2,4-oxadiazolyl]carbonyl)-2-(S)-methylpropyl]-L-prolinamide]	0.92 nM						concentration at 3 h ([3]; male, Sprague-Dawley, plasma): 0 µM
Cc1cccc(Cc2nnc(C(=O)[C@@H](NC(=O)CN(C(=O)[C@@H](NC(=O)OCc3ccccc3)C(C)C)c3ccccc3)C(C)C)o2)c1 [CE2232, Benzyloxycarbonyl-L-valyl-N-(phenyl)glycyl-N-[1-(2-[5-(3-methylbenzyl)-1,3,4-oxadiazolyl]carbonyl)-2-(S)-methylpropyl]amide]	0.15 nM						concentration at 1 h ([3]; male, Sprague-Dawley, plasma, 1 hr, read-out: Plasma Levels (μM) 1 hr): 0.44 µM; concentration at 3 h ([3]; male, Sprague-Dawley, plasma): 0.44 µM; concentration at 6 h ([3]; male, Sprague-Dawley, plasma, 6 hr, read-out: Plasma Levels (μM) 6 hr): 0.26 µM
BTD-[1-(2-[5-(3-methylbenzyl)-1,3,4-oxadiazolyl]carbonyl)-2-(S)-methylpropyl]amide [CE2126]	5 nM		0.161 µM				

Continued, in another order:

Ki [1]	Plasma Levels (μM) 1 hr ([3]; 1 hr)	Plasma Levels (μM) 3 hr [3]	Plasma Levels (μM) 6 hr ([3]; 6 hr)	Molecule	inhibition at 1 µM ([2]; 1 uM inhibitor)	inhibition at 5 µM ([2]; 5 uM inhibitor)	further results
24 nM				2-Oxo-5-methyl-1,4-(2-phenyl-1-thiophenodiazepine)-N-[1-(2-[5-(3-methylbenzyl)-1,3,4-oxadiazolyl]carbonyl)-2-(S)-methylpropyl]acetamide [CE2245]			ECM DATA % Inhibition 1 uM ([2]; 1 uM inhibitor): 34.7%; ECM DATA % Inhibition 5 uM ([2]; 5 uM inhibitor): 39.3%
0.21 nM				Cc1cccc(Cc2nnc(C(=O)[C@@H](NC(=O)Cn3c(-c4ccc(F)cc4)ncc(NC(=O)OCc4ccccc4)c3=O)C(C)C)o2)c1 [CE2095, 2-[5-[(Benzyloxycarbonyl)amino]-6-oxo-2-(4-fluorophenyl)-1,6-dihydro-1-pyrimidinyl]-N-[1-(2-[5-(3-methylbenzyl)-1,3,4-oxadiazolyl]carbonyl)-(S)-2-methylpropyl]acetamide]	60.4%	55.6%	
10 nM				Cc1cccc(Cc2nnc(C(=O)[C@@H](NC(=O)CN3C(=O)N[C@@H](Cc4ccccc4)C3=O)C(C)C)o2)c1 [CE2154, 5-(S)-Benzyl-2,4-imidazolidinedione-N-[1-(2-[5-(3-methylbenzyl)-1,3,4-oxadiazolyl]carbonyl)-2-(S)-methylpropyl]acetamide]	54.6%	65.4%	
163 nM	1.16 µM	0.83 µM	0.63 µM	Cc1cccc(Cc2nnc(C(=O)[C@@H](NC(=O)Cn3c(=O)ncc4ccccc43)C(C)C)o2)c1 [CE2215, 1,4-Quinazolin-2-one-N-[1-(2-[5-(3-methylbenzyl)-1,3,4-oxadiazolyl]carbonyl)-2-(S)-methylpropyl]acetamide]			
40 nM	1.276 µM	0.74 µM	0.962 µM	Cc1cccc(Cc2nnc(C(=O)[C@@H](NC(=O)CN3C(=O)N[C@@H](CC(C)C)C3=O)C(C)C)o2)c1 [CE2227, 4-(S)-(2-Isobutyl)-2,5-imidazolidinedione-N-[1-(2-[5-(3-methylbenzyl)-1,3,4-oxadiazolyl]carbonyl)-2-(S)-methylpropyl]acetamide]			
16 nM	1.226 µM	0.787 µM	0.531 µM	Cc1cccc(Cc2nnc(C(=O)[C@@H](NC(=O)CN3C(=O)NC4(CCCC4)C3=O)C(C)C)o2)c1 [CE2231, 4-Spirocyclopentane-2,5-imidazolidinedione-N-[1-(2-[5-(3-methylbenzyl)-1,3,4-oxadiazolyl]carbonyl)-2-(S)-methylpropyl]acetamide]			
